Measurements reported in patent US12180226B2, “Spirotricycle RIPK1 inhibitors and methods of uses thereof” (Merck Sharp & Dohme LLC, priority 2021, dated 2024).
Where a name gives a salt, the structure may show the parent alone.

Target: RIPK1 (recombinant GST-RIPK1 kinase domain, residues 1-327) (Homo sapiens (Human), UniProt Q13546)
Assay: RIPK1-ADP-Glo Enzymatic Assay
Assay type: biochemical
Conditions: ADP-Glo; 25 nM GST-RIPK1, 300 μM ATP; assay lower limit ~25 nM; read-out: RIPK1 V0 Ec50
In short: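 Inhibition of ADP formation was measured after compound and enzyme (25 nM) were pre-incubated for 30 minutes at ambient temperature and the kinase reaction ran for 150 minutes at 300 μM ATP with dephosphorylated MBP substrate. EC50 values come from ten-point curves fitted non-linearly.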

Sequence of RIPK1 (recombinant GST-RIPK1 kinase domain, residues 1-327) (Q13546 1-327): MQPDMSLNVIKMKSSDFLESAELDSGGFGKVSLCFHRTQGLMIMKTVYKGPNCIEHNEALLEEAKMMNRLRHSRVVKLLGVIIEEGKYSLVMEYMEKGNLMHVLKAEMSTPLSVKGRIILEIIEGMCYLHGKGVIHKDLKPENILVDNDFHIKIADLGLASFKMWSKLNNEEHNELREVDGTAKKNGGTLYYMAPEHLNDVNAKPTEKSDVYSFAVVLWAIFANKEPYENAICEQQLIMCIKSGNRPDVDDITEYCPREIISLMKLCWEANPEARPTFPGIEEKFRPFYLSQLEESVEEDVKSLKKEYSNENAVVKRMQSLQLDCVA

| EC50 | SMILES |
| --- | --- |
| 66.7 nM | O=C(c1ccc(Br)cn1)N1CCC2(CC1)O[C@@H]1CC[C@@H](c3cc(F)cc(F)c3)N1C2=O [Example 6.100, (5′S,7a′R)-1-(5-bromo-pyridine-2-carbonyl)-5′-(3,5-difluorophen-yl)tetrahydro-3′H-spiro[piperidine-4,2′-pyrrolo[2,1-b][1,3]-oxazol]-3′-one] |
| < 25 nM | Cc1ccc(C(=O)N2CCC3(CC2)O[C@@H]2CC[C@@H](c4cc(F)cc(F)c4)N2C3=O)s1 [Example 5.34, (5′S,7a′R)-5′-(3,5-difluoro-phenyl)-1-(5-methylthio-phene-2-carbonyl)tetra-hydro-3′H-spiro[piperidine-4,2′-pyrrolo[2,1-b]oxazol]-3′-one] |
| < 25 nM | COc1ccc(N2CCC3(CC2)O[C@@H]2CC[C@@H](c4cc(F)cc(F)c4)N2C3=O)n2ncnc12 [Example 19.3, (5′S,7a′R)-5′-(3,5-difluorophenyl)-1-(8-methoxy-[1,2,4]triazolo[1,5-a]pyridin-5-yl)tetrahydro-3′H-spiro[piperidine-4,2′ pyrrolo[2,1-b]oxazol]-3′-one, TFA salt] |
| < 25 nM | N#Cc1ccc(N2CCC3(CC2)O[C@@H]2CC[C@@H](c4cc(F)cc(F)c4)N2C3=O)n2nccc12 [Example 14.1, 7-((5′S,7a′R)-5′-(3,5-difluorophenyl)-3′-oxotetrahydro-3′H-spiro [piperidine-4,2′-pyrrolo [2,1-b]oxazol]-1-yl)pyrazolo[1,5-a]pyridine-4-carbonitrile, TFA] |
| < 25 nM | C#Cc1cccc(C(=O)N2CCC3(CC2)O[C@@H]2CC[C@@H](c4cc(F)cc(F)c4)N2C3=O)c1 [Example 5.25, (5′S,7a′R)-5′-(3,5-difluoro-phenyl)-1-(3-ethynyl-benzoyl)tetrahydro-3′H-spiro[piperidine-4,2′-pyrrolo[2,1-b]oxazol]-3′-one] |
| 66.9 nM | N#Cc1ccc(N2CCC3(CC2)C[C@@H]2OC[C@@H](c4ccccc4)N2C3=O)c(F)c1 [Example 11.3, 3-fluoro-4-[(3′R,7a′S)-5′-oxo-3′-phenyltetrahydro-1H,5′H-spiro[piperidine-4,6′-pyrrolo[2,1-b][1,3]oxazol]-1-yl]benzonitrile] |
| 349 nM | N#Cc1ccc(C(=O)N2CCC3(CC2)O[C@@H]2CC[C@@H](c4ccccc4)N2C3=O)cc1 [Example 6.151, 4-[(5′S,7a′R)-3′-oxo-5′-phenyltetrahydro-1H,3′H-spiro[piperi-dine-4,2′-pyrrolo[2,1-b][1,3]oxazole]-1-carbonyl]benzonitrile] |
| 54.3 nM | N#Cc1ccc(N2CC3(C2)O[C@@H]2CC[C@@H](c4ccccc4)N2C3=O)n2ncnc12 [Example 13.23, 5-((5′S,′7a′R)-3′-oxo-5′-phenyltetrahydro-3′H-spiro[azetidine-3,2′-pyrrolo[2,1-b]oxazol]-1-yl)-[1,2,4]triazolo[1,5-a]pyridine-8-carbonitrile, TFA salt] |
| 229 nM | O=C1N2[C@@H](CC[C@H]2c2ccccc2)OC12CCN(c1cc(-n3ccnc3)ccn1)CC2 [Example 11.21, (5′S,7a′R)-1-[4-(1H-imidazol-1-yl)pyridin-2-yl]-5′-phenyltetrahydro-3′H-spiro[piperidine-4,2′-pyrrolo[2,1-b][1,3]oxazol]-3′-one] |
| 48.3 nM | O=C(c1cnsc1)N1CCC2(CC1)O[C@@H]1CC[C@@H](c3cc(F)cc(F)c3)N1C2=O [Example 5.51, (5′S,7a′R)-5′-(3,5-difluoro-phenyl)-1-(isothiazole-4-carbonyl)tetrahydro-3′H-spiro[piperidine-4,2′-pyrrolo[2,1-b]oxazol]-3′-one] |
| < 25 nM | N#Cc1ccc(F)c(C(=O)N2CCC3(CC2)O[C@@H]2CC[C@@H](c4cc(F)cc(F)c4)N2C3=O)c1 [Example 5.16, 3-((5′S,7a′R)-5′-(3,5-difluorophenyl)-3′-oxo-tetrahydro-3′H-spiro [piperidine-4,2′-pyrrolo-[2,1-b]oxazole]-1-carbon-yl)-4-fluorobenzonitrile] |
| 236 nM | O=C(C1CCCCC1)N1CCC2(CC1)O[C@@H]1CC[C@@H](c3cc(F)cc(F)c3)N1C2=O [Example 5.7, (5′S,7a′R)-1-(cyclohexane-carbonyl)-5′-(3,5-difluoro-phenyl)tetrahydro-3′H-spiro[piperidine-4,2′-pyrrolo[2,1-b][1,3]oxazol]-3′-one] |
| < 25 nM | O=C(c1cc(O)ccc1F)N1CCC2(CC1)O[C@@H]1CC[C@@H](c3cc(F)cc(F)c3)N1C2=O [Example 5.57, (5′S,7a′R)-5′-(3,5-difluoro-phenyl)-1-(2-fluoro-5-hydroxybenzoyl)tetra-hydro-3′H-spiro[piperidine-4,2′-pyrrolo[2,1-b]oxazol]-3'-one] |
| 537 nM | O=C(Nc1ccccc1)N1CCC2(CC1)O[C@@H]1CC[C@@H](c3cc(F)cc(F)c3)N1C2=O [Example 12.1, (5′S,7a′R)-5′-(3,5-Difluorophenyl)-3′-oxo-N-phenyltetrahydro-3′H-spiro[piperidine-4,2′-pyrrolo[2,1-b]oxazole]-1-carboxamide] |

Further lines, the compound ahead of its results:

| SMILES | EC50 |
| --- | --- |
| O=C1N2[C@@H](CC[C@H]2c2cc(F)cc(F)c2)OC12CCN(c1cccc3ccnn13)CC2 [Example 15.2, (5′S,7a′R)-5′-(3,5-difluorophenyl)-1-(pyrazolo[1,5-a]pyridin-7-yl)tetrahydro-3′H-spiro[piperidine-4,2′-pyrrolo[2,1-b]oxazol]-3′-one, TFA] | < 25 nM |
| NC(=O)c1ccc(N2CCC3(CC2)O[C@@H]2CC[C@@H](c4ccccc4)N2C3=O)nc1Cl [Example 4.201, 2-chloro-6-[(5′S,7a′R)-3′-oxo-5′-phenyltetrahydro-1H,3′H-spiro[piperidine-4,2′-pyrrolo[2,1-b] [1,3]oxazol]-1-yl]pyridine-3-carboxamide] | < 25 nM |
| Cc1ccc(F)c(C(=O)N2CCC3(CC2)O[C@@H]2CC[C@@H](c4ccccc4F)N2C3=O)c1 [Example 1.17, (5′S,7a′R)-1-(2-fluoro-5-methylbenzoyl)-5′-(2-fluorophenyl)tetrahydro-3′H-spiro[piperidine-4,2′-pyrrolo[2,1-b]oxazol]-3′-one] | < 25 nM |
| N#Cc1ccc(N2CCC3(CC2)O[C@@H]2CC[C@@H](c4cccc(F)c4)N2C3=O)n2nccc12 [Example 4.157, 7-[(5′S,7a′R)-5′-(3-fluorophenyl)-3′-oxotetrahydro-1H,3′H-spiro[piperidine-4,2′-pyrrolo[2,1-b] [1,3]oxazol]-1-yl]pyrazolo[1,5-a] pyridine-4-carbonitrile] | < 25 nM |
| O=C1N2[C@@H](CC[C@H]2c2ccccc2F)OC12CCN(c1cccc3ncnn13)CC2 [Example 4.253, (5′S,7a′R)-5′-(2-fluorophenyl)-1-([1,2,4]triazolo[1,5-a]pyridin-5-yl)tetrahydro-3′H-spiro[piperidine-4,2′-pyrrolo[2,1-b] [1,3]oxazol]-3′-one] | < 25 nM |
| CC1CN(c2cccc3ncnn23)CCC12O[C@@H]1CC[C@@H](c3cc(F)cc(F)c3)N1C2=O (stereo partly drawn) [Example 4.266, (5′S,7a′R)-5′-(3,5-difluorophenyl)-3-methyl-1-([1,2,4]triazolo[1,5-a]pyridin-5-yl)tetrahydro-3′H-spiro[piperidine-4,2′-pyrrolo[2,1-b] [1,3]oxazol]-3′-one] | < 25 nM |
| N#Cc1cc(N2CCC3(CC2)O[C@@H]2CC[C@@H](c4ccccc4)N2C3=O)ncn1 [Example 4.40, 6-[(5′S,7a′R)-3′-oxo-5′-phenyltetrahydro-1H,3′H-spiro[piperidine-4,2′-pyrrolo[2,1-b] [1,3]oxazol]-1-yl]pyrimidine-4-carbonitrile] | 32.2 nM |
| O=C1N2[C@@H](CC[C@H]2c2ccc(F)cc2)OC12CCN(c1ccnc3c(F)cnn13)CC2 [Example 4.124, (5′S,7a′R)-5′-(4-fluorophenyl)-1-(3-fluoropyrazolo[1,5-a]pyrimidin-7-yl)tetrahydro-3′H-spiro[piperidine-4,2′-pyrrolo[2,1-b] [1,3]oxazol]-3′-one] | < 25 nM |
| NC(=O)c1ccc(N2CCC3(CC2)O[C@@H]2CC[C@@H](c4ccccc4)N2C3=O)n2nccc12 [Example 4.155, 7-[(5′S,7a′R)-3′-oxo-5′-phenyltetrahydro-1H,3′H-spiro[piperidine-4,2′-pyrrolo[2,1-b] [1,3]oxazol]-1-yl]pyrazolo[1,5-a] pyridine-4-carboxamide] | < 25 nM |
| CC(F)c1cc(N2CCC3(CC2)O[C@@H]2CC[C@@H](c4ccccc4)N2C3=O)ncn1 (stereo partly drawn) [Example 4.215, (5′S,7a′R)-1-[6-(1-fluoroethyl)pyrimidin-4-yl]-5′-phenyltetrahydro-3′H-spiro[piperidine-4,2′-pyrrolo[2,1-b] [1,3]oxazol]-3′-one] | 552 nM |
| C[C@@]12CC[C@@H](c3ccccc3)N1C(=O)C1(CCN(c3ccnc4c(F)cnn34)CC1)O2 [Example 4.81, (5′S,7a′R)-1-(3-fluoropyrazolo[1,5-a]pyrimidin-7-yl)-7a′-methyl-5′-phenyltetrahydro-3′H-spiro[piperidine-4,2′-pyrrolo[2,1-b] [1,3]oxazol]-3′-one] | 51.2 nM |
| O=C1N2[C@@H](CC[C@H]2c2ccccc2)OC12CN(c1ccnc3ccnn13)C2 [Example 4.136, (5′S,7a′R)-5′-phenyl-1-(pyrazolo[1,5-a]pyrimidin-7-yl)tetrahydro-3′H-spiro[azetidine-3,2′-pyrrolo[2,1-b] [1,3]oxazol]-3′-one] | < 25 nM |
| O=C1N2C(=NC13CCN(c1ccnc4c(F)cnn14)CC3)CC[C@H]2c1cc(F)cc(F)c1 [Example 4.79, (S)-5′-(3,5-difluorophenyl)-1-(3-fluoropyrazolo[1,5-a]pyrimidin-7-yl)-6′,7′-dihydro-3′H,5′H-spiro[piperidine-4,2′-pyrrolo[1,2-a]imidazol]-3′-one] | < 25 nM |
| COc1cc(N2CCC3(CC2)O[C@@H]2CC[C@@H](c4cc(F)cc(F)c4)N2C3=O)nc(C)c1C#N [Example 4.69, 6-[(5′S,7a′R)-5′-(3,5-difluorophenyl)-3′-oxotetrahydro-1H,3′H-spiro[piperidine-4,2′-pyrrolo[2,1-b] [1,3]oxazol]-1-yl]-4-methoxy-2-methylpyridine-3-carbonitrile] | 114 nM |
